Source: US7763585B2, “Methods for inhibiting tumor cell proliferation” (priority 2003, dated 2010)

Assays:
Stat3 [1] = test: EMSA of nuclear extracts from treated cells with constitutively-activated Stat3; type: cell-based, mouse and human; settings: Src-transformed fibroblasts and human tumor cells, FIG. 3
Experimental: FIG. 3 is a photograph showing the evaluation of effects of platinum complexes on Stat3 activation analyzed by EMSA. Nuclear extracts prepared from malignant cells that contain constitutively-activated Stat3 and treated with platinum complexes for the indicated times were analyzed by EMSA using hSIE oligonucleotide probe. Extracts were prepared from v-Src-transformed NIH3T3/v-Src; human breast carcinoma MDA-MB-231; MDA-MB-435; and […]. Position of Stat3:DNA complex in gel is shown.
Nuclear extracts were prepared from cell lines and used for EMSA as previously described (Turkson et al., 1998; Yu et al., 1995; Garcia et al., 1997). In some cases, cells were pre-treated with platinum complexes for the indicated times prior to harvesting. Where cells were stimulated with EGF (6 ng/ml), duration of treatment was 15 min. Nuclear extracts were pre-incubated with compounds for 30 min at room temperature prior to incubation with radiolabeled probe. The ^32P-radiolabeled oligonucleotide probes used are hSIE (high affinity sis-inducible element, m67 variant, 5′-[…]-3′) (SEQ ID NO:1) that binds both Stat1 and Stat3 (Garcia et al., 1997; Wagner et al., 1990), MGFe (mammary gland factor element from the bovine β-casein gene promoter, 5′-[…]-3′) (SEQ ID NO:2) that binds Stat1 and Stat5 (Gouilleux et al., 1995; Seidel et al., 1995), the NF-κB binding oligo (5′-[…]-3′) (SEQ ID NO:3), and the oligonucleotide sequence from the DHFR promoter that binds E2F1.
The effects of platinum complexes on persistent activation of Stat3 in Src-transformed fibroblasts and human tumor cells were investigated. […] These studies were then extended to evaluate the effects of the platinum complexes on Stat3 transcriptional activity.

Stat3:Stat3 = target: T1, Stat3:Stat3 (Mus musculus, UniProt P42227); test: EMSA, disruption of Stat3:Stat3 DNA-binding activity in vitro (hSIE probe); type: biochemical; settings: for Level of DNA-binding activity of Stat3 (EMSA): EGF-stimulated fibroblast nuclear extracts, 30 min preincubation, FIG. 1A
T1 construct: endogenous in cells; host or cells: EGF-stimulated fibroblasts (nuclear extract)
Experimental: (§1) FIGS. 1A-D are photographs showing EMSA analyses of DNA-binding activities and effects of platinum complexes. Nuclear extracts containing activated Stat1, Stat3 and Stat5 are treated with the indicated concentrations of platinum complex ISSCPA-1, ISSCPA-3, ISSCPA-7, or PtCl4 for 30 min at room temperature prior to incubation with radiolabeled oligonucleotide probes. […] Positions of complexes of DNA with STAT, E2F1 or NFκB (p65, p50) in gel are labeled. Control lanes represent nuclear extracts that are not pre-incubated with platinum complexes.
(§2) Nuclear extracts were prepared from cell lines and used for EMSA as previously described (Turkson et al., 1998; Yu et al., 1995; Garcia et al., 1997). In some cases, cells were pre-treated with platinum complexes for the indicated times prior to harvesting. Where cells were stimulated with EGF (6 ng/ml), duration of treatment was 15 min. Nuclear extracts were pre-incubated with compounds for 30 min at room temperature prior to incubation with radiolabeled probe. The ^32P-radiolabeled oligonucleotide probes used are hSIE (high affinity sis-inducible element, m67 variant, 5′-[…]-3′) (SEQ ID NO:1) that binds both Stat1 and Stat3 (Garcia et al., 1997; Wagner et al., 1990), MGFe (mammary gland factor element from the bovine β-casein gene promoter, 5′-AGATTTCTAGGAATTCAA-3′) (SEQ ID NO:2) that binds Stat1 and Stat5 (Gouilleux et al., 1995; Seidel et al., 1995), the NF-κB binding oligo (5′-[…]-3′) (SEQ ID NO:3), and the oligonucleotide sequence from the DHFR promoter that binds E2F1.
(§3) Platinum compounds were evaluated for inhibitory activity against STAT DNA-binding in vitro.

Stat5 = test: EMSA, Stat5 DNA-binding activity in vitro (MGFe probe); type: biochemical, mouse; settings: FIG. 1B
Experimental: as §1, §2, §3

Stat1:Stat1 = target: T2, Stat1:Stat1 (Mus musculus, UniProt P42225); test: EMSA, disruption of Stat1:Stat1 DNA-binding activity in vitro (hSIE probe); type: biochemical
T2 construct: endogenous in cells; host or cells: EGF-stimulated fibroblasts (nuclear extract)
T2 sequence (P42225 2-749 limits assumed): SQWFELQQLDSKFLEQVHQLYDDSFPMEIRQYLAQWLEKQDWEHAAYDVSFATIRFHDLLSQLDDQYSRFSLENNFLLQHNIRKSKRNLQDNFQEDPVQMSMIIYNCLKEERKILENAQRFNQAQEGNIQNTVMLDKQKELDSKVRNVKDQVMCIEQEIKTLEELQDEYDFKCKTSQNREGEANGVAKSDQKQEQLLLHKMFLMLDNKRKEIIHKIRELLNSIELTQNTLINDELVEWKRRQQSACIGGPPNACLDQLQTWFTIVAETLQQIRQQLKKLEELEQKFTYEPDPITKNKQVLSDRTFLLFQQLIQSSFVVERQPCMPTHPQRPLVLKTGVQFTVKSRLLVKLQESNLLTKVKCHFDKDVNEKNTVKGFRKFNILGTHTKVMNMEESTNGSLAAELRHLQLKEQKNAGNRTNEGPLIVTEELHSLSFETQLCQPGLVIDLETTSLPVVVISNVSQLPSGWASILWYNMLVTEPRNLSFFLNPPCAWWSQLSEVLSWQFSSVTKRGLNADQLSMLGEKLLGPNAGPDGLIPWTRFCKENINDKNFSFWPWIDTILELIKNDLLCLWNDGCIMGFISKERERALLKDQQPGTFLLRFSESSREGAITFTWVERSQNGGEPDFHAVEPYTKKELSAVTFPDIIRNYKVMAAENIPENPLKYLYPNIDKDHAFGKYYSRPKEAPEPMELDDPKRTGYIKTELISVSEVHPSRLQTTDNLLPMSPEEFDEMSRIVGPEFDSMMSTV
Experimental: as §1, §2, §3

Stat1:Stat3 = target: T3, Stat1:Stat3 (Mus musculus, UniProt P42225+P42227); test: EMSA, disruption of Stat1:Stat3 DNA-binding activity in vitro (hSIE probe); type: biochemical
T3 construct: endogenous in cells; host or cells: EGF-stimulated fibroblasts (nuclear extract)
Experimental: as §1, §2, §3

B16 melanoma = test: Mouse model of melanoma tumor, intra-tumoral injection; type: in vivo; settings: direct intra-tumoral injection, monitored up to 9 days, FIG. 8
Experimental: (§4) FIGS. 8A-C show tumor regression induced by platinum (IV) chloride. Tumor models in mice using B16 melanoma and CT26 colon tumors both of which harbor constitutively-active Stat3 were treated by intra-tumoral injection with doses of platinum (IV) chloride and tumor sizes monitored every other day for up to 9 days. FIG. 8A is a photograph showing extracted tumor tissues were analyzed for Stat3 activity in in vitro DNA-binding assays and EMSA analysis. FIG. 8B and FIG. 8C show tumor sizes monitored by calipers plotted against days of treatment.
(§5) The antitumor efficacy of platinum (IV) chloride of the invention using mouse models of melanoma and colon tumors was evaluated. Established tumors were directly injected with doses of platinum (IV) chloride and tumor size subsequently monitored. […] In parallel studies, treated tumors were extracted and Stat3 activity determined on the basis of DNA-binding activity analyzed by EMSA. […] Together, the findings support inhibition of constitutively-active STATs by platinum (IV) chloride leads to regression of melanoma and colon tumors.

Stat3 [2] = target: T4, Stat3 (Mus musculus, UniProt P42227); test: Stat3 DNA-binding activity (EMSA) in extracted treated tumors; type: in vivo; settings: FIG. 8A
T4 construct: from tissue; host or cells: extracted B16 melanoma / CT26 colon tumour tissue from mice
Experimental: as §4, §5

CT26 colon tumors = test: Mouse model of colon tumor, intra-tumoral injection; type: in vivo; settings: direct intra-tumoral injection, monitored up to 9 days, FIG. 8
Experimental: as §4, §5

T1 sequence (P42227 2-770 limits assumed): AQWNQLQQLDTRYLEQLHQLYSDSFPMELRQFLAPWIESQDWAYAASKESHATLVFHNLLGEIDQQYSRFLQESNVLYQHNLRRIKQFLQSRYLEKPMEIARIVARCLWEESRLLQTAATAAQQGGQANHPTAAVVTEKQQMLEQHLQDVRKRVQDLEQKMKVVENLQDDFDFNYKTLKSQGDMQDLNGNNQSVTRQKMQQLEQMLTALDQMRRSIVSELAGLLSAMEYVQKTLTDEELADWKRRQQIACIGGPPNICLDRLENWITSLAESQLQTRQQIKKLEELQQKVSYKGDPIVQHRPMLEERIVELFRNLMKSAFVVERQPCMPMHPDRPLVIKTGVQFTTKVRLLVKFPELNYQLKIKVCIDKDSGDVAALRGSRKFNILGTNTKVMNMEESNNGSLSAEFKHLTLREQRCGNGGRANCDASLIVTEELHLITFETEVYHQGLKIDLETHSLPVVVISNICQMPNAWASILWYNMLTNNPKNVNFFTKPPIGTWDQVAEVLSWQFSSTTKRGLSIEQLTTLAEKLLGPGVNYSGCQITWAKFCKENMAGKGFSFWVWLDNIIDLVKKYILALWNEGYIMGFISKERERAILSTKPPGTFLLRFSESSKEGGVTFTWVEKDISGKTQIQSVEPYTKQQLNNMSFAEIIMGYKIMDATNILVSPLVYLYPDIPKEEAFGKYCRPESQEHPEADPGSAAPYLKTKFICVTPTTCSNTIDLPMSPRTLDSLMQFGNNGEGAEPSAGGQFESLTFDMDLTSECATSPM
T3 sequence (P42227 2-770 limits assumed, one chain of several): as the sequence (P42227 2-770 limits assumed) above
T4 sequence (P42227 whole entry): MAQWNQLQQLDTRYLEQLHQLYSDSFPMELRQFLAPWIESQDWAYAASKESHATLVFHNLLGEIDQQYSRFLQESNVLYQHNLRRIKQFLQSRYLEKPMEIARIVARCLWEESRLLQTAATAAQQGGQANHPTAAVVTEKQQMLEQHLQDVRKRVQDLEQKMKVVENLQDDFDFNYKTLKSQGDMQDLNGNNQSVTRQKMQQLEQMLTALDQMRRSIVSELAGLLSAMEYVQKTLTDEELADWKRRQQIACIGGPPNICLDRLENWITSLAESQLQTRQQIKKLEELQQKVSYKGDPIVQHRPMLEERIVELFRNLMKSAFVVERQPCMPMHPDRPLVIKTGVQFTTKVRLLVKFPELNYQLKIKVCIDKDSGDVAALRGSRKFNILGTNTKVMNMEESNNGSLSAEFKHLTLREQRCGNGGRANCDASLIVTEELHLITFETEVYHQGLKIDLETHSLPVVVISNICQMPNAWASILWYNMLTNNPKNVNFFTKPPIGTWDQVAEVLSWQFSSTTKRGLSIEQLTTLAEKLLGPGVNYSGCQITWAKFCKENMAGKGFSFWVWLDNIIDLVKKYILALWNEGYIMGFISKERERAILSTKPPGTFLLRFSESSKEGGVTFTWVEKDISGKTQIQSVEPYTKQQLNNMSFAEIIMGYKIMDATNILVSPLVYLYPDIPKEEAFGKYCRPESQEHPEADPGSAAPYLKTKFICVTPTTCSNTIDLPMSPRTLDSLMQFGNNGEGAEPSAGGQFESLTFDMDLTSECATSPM

| Structure (SMILES) | Inhibition of constitutive Stat3 activation in treated cells (EMSA of nuclear extracts) (Stat3 [1]) | Level of DNA-binding activity of Stat3 (EMSA) (Stat3:Stat3) | IC50 (Stat3:Stat3; nuclear extracts pre-incubated 30 min at room temperature, read-out: IC50 for disruption of STAT DNA-binding activity in vitro, Stat3:Stat3) | Inhibitory effect on Stat5 DNA-binding activity (EMSA) (Stat5) | IC50 (Stat1:Stat1) | Level of DNA-binding activity of Stat1 (EMSA) (Stat1:Stat1; EGF-stimulated fibroblast nuclear extracts, 30 min preincubation, hSIE probe, FIG. 1A) | IC50 (Stat1:Stat3) | Tumor size, melanoma tumors (B16 melanoma) | Constitutively-active Stat3 in treated tumors (DNA-binding activity by EMSA) (Stat3 [2]) | Tumor size, colon tumors (CT26 colon tumors) |
| --- | --- | --- | --- | --- | --- | --- | --- | --- | --- | --- |
| N.N.[Cl][Pt][Cl] [Cisplatin, reference compound] | modest or negligible | – | – | – | – | – | – | – | – | – |
| [Cl][Pt]1([Cl])[NH]CC[NH]1 [ISS CPA-3] | modest or negligible | dose-dependent reduction | 5.8 µM | much reduced inhibitory effect | 8.3 µM | dose-dependent reduction | 27 µM | – | – | – |
| [Cl][Pt]([Cl])([Cl])[Cl] [platinum (IV) chloride] | – | disrupts DNA-binding activity of Stat3 | – | – | – | – | – | complete regression | strongly attenuated | complete regression |
